In patent US20220411388A1, “SUBSTITUTED IMIDAZOLE CARBOXAMIDES AND THEIR USE IN THE TREATMENT OF MEDICAL DISORDERS” (Bial - R&D Investments, S.A., priority 2019, published 2022):
Converted amounts (≈) assume the structure as drawn. Read-outs that look alike come from different tables or passages of the source.

Tests used:
[1] = molecular target: T1, acid ceramidase (hACR) (Homo sapiens, UniProt Q13510); assay: Acid ceramidase inhibition, biochemical fluorescent assay with cell lysates overexpressing acid ceramidase (substrate Rbm14-12); details: cell lysate, 1 hr preincubation at RT, pH 4.5, Rbm14-12 6.3 μM
T1 construct: expressed in transfected cells
T1 sequence (Q13510 22-395): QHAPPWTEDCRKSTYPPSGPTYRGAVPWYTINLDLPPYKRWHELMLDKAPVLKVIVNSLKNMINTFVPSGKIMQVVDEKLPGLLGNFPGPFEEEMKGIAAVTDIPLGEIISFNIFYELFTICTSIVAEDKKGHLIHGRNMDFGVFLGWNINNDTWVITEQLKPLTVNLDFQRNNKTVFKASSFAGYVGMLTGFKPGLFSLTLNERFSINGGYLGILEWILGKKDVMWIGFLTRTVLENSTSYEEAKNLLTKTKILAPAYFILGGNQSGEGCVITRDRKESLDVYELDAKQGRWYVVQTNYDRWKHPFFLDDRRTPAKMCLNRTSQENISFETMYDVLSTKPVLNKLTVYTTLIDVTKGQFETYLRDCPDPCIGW
Description: The ability of exemplary compounds to inhibit acid ceramidase was measured.
Cell lysates overexpressing acid ceramidase were used as the enzyme source for compound potency determination in a biochemical fluorescent assay. Briefly, compounds were preincubated with 10 μg protein of cell lysates in a dose-response manner for 1 hr at RT in the assay buffer containing 25 mM NaAC and 100 mM NaCl, pH 4.5. […] The samples were incubated with the stopping buffer at RT for 1 hr to allow the fluorescent product to be formed. […] Data were collected and used to determine the IC50 values of compounds by curve fitting to the four-parameter inhibition equation.

[2] = Compound solubility in water; type: physicochemical

SMILES	IC50 ([1]; read-out: IC50 hACR) [nM]	solubility [2] [µg/mL]	IC50 ([1]; IC50 hACR) [nM]
COc1nc(C2CCCO2)cn1C(=O)NCCC(C)C (stereo not shown) [Example 84, N-iso-pentyl-2-methoxy-4-(tetrahydrofuran-2-yl)-1H-imidazole-1-carboxamide]	> 1000	25 (≈ 88.9 µM)	–
COc1nc(C2CCOC2)cn1C(=O)NCCC(C)C (stereo not shown) [Example 85, N-iso-Pentyl-2-methoxy-4-(tetrahydrofuran-3-yl)-1H-imidazole-1-carboxamide]	200 to 1000	28 (≈ 99.5 µM)	–
CC(C)CNC(=O)n1cnc(C(C)(C)C)c1 [Example 87, 4-(tert-Butyl)-N-iso-butyl-1H-imidazole-1-carboxamide]	200 to 1000	17 (≈ 76.1 µM)	–
COc1ccc(-c2cn(C(=O)NCCC3(C(F)(F)F)CC3)c(OC)n2)cn1 [Example 94, 2-Methoxy-4-(6-methoxypyridin-3-yl)-N-(2-(1-(trifluoromethyl)cyclopropyl)ethyl)-1H-imidazole-1-carboxamide]	200 to 1000	6 (≈ 15.6 µM)	–
CCC(C)(C)c1cn(C(=O)NCCC(C)C)c(OC)n1 [Example 100, N-iso-Pentyl-2-methoxy-4-(tert-pentyl)-1H-imidazole-1-carboxamide]	–	14 (≈ 49.8 µM)	200 to 1000
COc1nc(C(C)(C)C)cn1C(=O)NCCCc1ccccc1 [Example 101, 4-(tert-Butyl)-2-methoxy-N-(3-phenylpropyl)-1H-imidazole-1-carboxamide]	< 200	10 (≈ 31.7 µM)	–
COc1nc(-c2coc(C(C)(C)C)n2)cn1C(=O)NCCC1CC1 [Example 103, 4-(2-(tert-Butyl)oxazol-4-yl)-N-(2-cyclopropylethyl)-2-methoxy-1H-imidazole-1-carboxamide]	> 1000	6 (≈ 18.1 µM)	–
COc1nc(C2(C)CCOCC2)cn1C(=O)NCCC1CC1 [Example 104, N-(2-Cyclopropylethyl)-2-methoxy-4-(4-methyltetrahydro-2H-pyran-4-yl)-1H-imidazole-1-carboxamide]	200 to 1000	28 (≈ 91.1 µM)	–
COc1nc(C2CCCC2)cn1C(=O)NCCCOc1ccccc1 [Example 105, 4-Cyclopentyl-2-methoxy-N-(3-phenoxypropyl)-1H-imidazole-1-carboxamide]	< 200	14 (≈ 40.8 µM)	–
COc1nc(C2CCCC2)cn1C(=O)NC1CCCCC1 [Example 106, N-Cyclohexyl-4-cyclopentyl-2-methoxy-1H-imidazole-1-carboxamide]	> 1000	6 (≈ 20.6 µM)	–
CC(C)CNC(=O)n1cc(C(C)(C)C)nc1OC(C)C [Example 107, 4-(tert-Butyl)-N-iso-butyl-2-iso-propoxy-1H-imidazole-1-carboxamide]	200 to 1000	7 (≈ 24.9 µM)	–
COc1nc(C2CCOC2)cn1C(=O)NC1CCCCC1 (stereo not shown) [Example 108, N-Cyclohexyl-2-methoxy-4-(tetrahydrofuran-3-yl)-1H-imidazole-1-carboxamide]	> 1000	32 (≈ 109 µM)	–
COc1nc(C2CCCCC2)cn1C(=O)NCCC(C)C [Example 109, 4-Cyclohexyl-N-iso-pentyl-2-methoxy-1H-imidazole-1-carboxamide]	200 to 1000	13 (≈ 44.3 µM)	–
COc1nc(C2CCOCC2)cn1C(=O)NCCC(C)C [Example 110, N-iso-Pentyl-2-methoxy-4-(tetrahydro-2H-pyran-4-yl)-1H-imidazole-1-carboxamide]	200 to 1000	29 (≈ 98.2 µM)	–
CC(C)CCNC(=O)n1cc(C(C)(C)C)nc1Oc1ccccc1F [Example 115, 4-tert-Butyl-2-(2-fluorophenoxy)-N-iso-pentyl-1H-imidazole-1-carboxamide]	200 to 1000	0.4 (≈ 1.15 µM)	–
CC(C)CCNC(=O)n1cc(C(C)(C)C)nc1Oc1ccc(F)cc1 [Example 116, 4-tert-Butyl-2-(4-fluorophenoxy)-N-iso-pentyl-1H-imidazole-1-carboxamide]	< 200	1 (≈ 2.88 µM)	–
COCCOc1nc(C(C)(C)C)cn1C(=O)NCCC(C)C [Example 117, 4-(tert-Butyl)-N-iso-pentyl-2-(2-methoxyethoxy)-1H-imidazole-1-carboxamide]	200 to 1000	10 (≈ 32.1 µM)	–
COc1nc(C2CCOC2)cn1C(=O)NCCCc1ccccc1 (stereo not shown) [Example 118, 2-Methoxy-N-(3-phenylpropyl)-4-(tetrahydrofuran-3-yl)-1H-imidazole-1-carboxamide]	< 200	17 (≈ 51.6 µM)	–
COc1nc(C)cn1C(=O)NCCC(C)C [Example 119, N-iso-Pentyl-2-methoxy-4-methyl-1H-imidazole-1-carboxamide]	200 to 1000	14 (≈ 62.1 µM)	–
COc1nccn1C(=O)NC1CCCCC1 [Example 120, N-Cyclohexyl-2-methoxy-1H-imidazole-1-carboxamide]	> 1000	14 (≈ 62.7 µM)	–
CCOc1nccn1C(=O)NCCC(C)C [Example 121, 2-Ethoxy-N-iso-pentyl-1H-imidazole-1-carboxamide]	200 to 1000	23 (≈ 102 µM)	–
CC(C)CCNC(=O)n1ccnc1OC(C)C [Example 122, N-iso-Pentyl-2-iso-propoxy-1H-imidazole-1-carboxamide]	200 to 1000	21 (≈ 87.7 µM)	–
COc1nccn1C(=O)NCCCC(C)C [Example 123, 2-Methoxy-N-(4-methylpentyl)-1H-imidazole-1-carboxamide]	< 200	16 (≈ 71 µM)	–

Further lines, with some results ahead:

IC50 ([1]; read-out: IC50 hACR) [nM]	solubility [2] [µg/mL]	SMILES	IC50 ([1]; IC50 hACR) [nM]
200 to 1000	15 (≈ 59.2 µM)	COc1nc(C(C)(C)C)cn1C(=O)NCC(C)C [Example 86, 4-(tert-Butyl)-N-iso-butyl-2-methoxy-1H-imidazole-1-carboxamide]	–
200 to 1000	17 (≈ 51 µM)	COc1nc(C(C)(C)C)cn1C(=O)NCCC1(C(F)(F)F)CC1 [Example 90, 4-(tert-Butyl)-2-methoxy-N-(2-(1-(trifluoromethyl)cyclopropyl)ethyl)-1H-imidazole-1-carboxamide]	–
200 to 1000	22 (≈ 71.6 µM)	COc1nc(C(C)(C)C)cn1C(=O)NCCCC(F)(F)F [Example 91, 4-(tert-Butyl)-2-methoxy-N-(4,4,4-trifluorobutyl)-1H-imidazole-1-carboxamide]	–
200 to 1000	12 (≈ 43 µM)	CCOc1nc(C(C)(C)C)cn1C(=O)NCCC1CC1 [Example 92, 4-(tert-Butyl)-N-(2-cyclopropylethyl)-2-ethoxy-1H-imidazole-1-carboxamide]	–
200 to 1000	8 (≈ 28.6 µM)	COc1nc(C(C)(C)C)cn1C(=O)NC1CCCCC1 [Example 93, 4-(tert-Butyl)-N-cyclohexyl-2-methoxy-1H-imidazole-1-carboxamide]	–
< 200	12 (≈ 43 µM)	COc1nc(C(C)(C)C)cn1C(=O)NCCCC1CC1 [Example 95, 4-(tert-Butyl)-N-(3-cyclopropylpropyl)-2-methoxy-1H-imidazole-1-carboxamide]	–
< 200	12 (≈ 34.5 µM)	COc1nc(C(C)(C)C)cn1C(=O)NCCCC1(C(F)(F)F)CC1 [Example 96, 4-(tert-Butyl)-2-methoxy-N-(3-(1-(trifluoromethyl)cyclopropyl)propyl)-1H-imidazole-1-carboxamide]	–
< 200	3 (≈ 10.2 µM)	COc1nc(C(C)(C)C)cn1C(=O)NCCCCC1CC1 [Example 97, 4-(tert-Butyl)-N-(4-cyclopropylbutyl)-2-methoxy-1H-imidazole-1-carboxamide]	–
< 200	5 (≈ 18 µM)	COc1nc(C(C)(C)C)cn1C(=O)NCC#CC(C)C [Example 98, 4-(tert-Butyl)-2-methoxy-N-(4-methylpent-2-yn-1-yl)-1H-imidazole-1-carboxamide]	–
> 1000	14 (≈ 44.4 µM)	COc1nc(C(C)(C)C)cn1C(=O)NC1CCCC(F)(F)C1 (stereo not shown) [Example 99, 4-(tert-Butyl)-N-(3,3-difluorocyclohexyl)-2-methoxy-1H-imidazole-1-carboxamide]	–
< 200	10 (≈ 35.5 µM)	COc1nc(C(C)(C)C)cn1C(=O)NCCCC(C)C [Example 102, 4-(tert-Butyl)-2-methoxy-N-(4-methylpentyl)-1H-imidazole-1-carboxamide]	–
200 to 1000	15 (≈ 45.5 µM)	COc1nc(C2CCC(F)(F)CC2)cn1C(=O)NCCC(C)C [Example 111, 4-(4,4-Difluorocyclohexyl)-N-iso-pentyl-2-methoxy-1H-imidazole-1-carboxamide]	–
200 to 1000	12 (≈ 38.1 µM)	COc1nc(C(C)(C)C)cn1C(=O)NC1CCC(F)(F)CC1 [Example 112, 4-(tert-Butyl)-N-(4,4-difluorocyclohexyl)-2-methoxy-1H-imidazole-1-carboxamide]	–
200 to 1000	24 (≈ 101 µM)	COc1nc(C(C)(C)C)cn1C(=O)NC1CC1 [Example 113, 4-(tert-Butyl)-N-cyclopropyl-2-methoxy-1H-imidazole-1-carboxamide]	–
200 to 1000	29 (≈ 103 µM)	COc1nc(C(C)(C)C)cn1C(=O)NC1CCOCC1 [Example 114, 4-(tert-Butyl)-2-methoxy-N-(tetrahydro-2H-pyran-4-yl)-1H-imidazole-1-carboxamide]	–
